Reference: patent publication US7812022B2 (GlaxoSmithKline LLC, priority 2004, dated 2010)
pIC50: −log10 of the molar value.

Key:
[1] = test system: BT474 and HN5 tumor cell lines; test: Celltiter Glo growth inhibition assay (cellular Method B); assay type: cell-based; conditions: Homo sapiens, BT-474, 72 h, 3 days, read-out: Activity (Method): growth inhibition IC50 class
Experimental: (§1) Human breast tumor cells (BT474) were cultured in RPMI, (Invitrogen, 22400) containing 10% fetal bovine serum (FBS). Human head and neck tumor cells (HN5) were cultured in low glucose DMEM (Invitrogen, 12320) containing 10% FBS. Human colon tumor cells (Colo205) were cultured in DMEM (Invitrogen, 10564) containing 10% FBS. All cell lines were maintained at 37° C. in a humidified 5% CO2, 95% air incubator. Cells were harvested using trypsin/EDTA, counted using a haemocytometer, and plated in 30 microliters of the appropriate media described above, at the following densities, in a half area, black-walled, 96-well tissue culture plate (Corning 3882): BT474 3,000 cells/well, HN5 500 cells/well and Colo205 cells, 3,000 cells/well. The next day, compounds were diluted in DMEM containing […] gentamicin, from 10 mM stock solutions in DMSO. 30 microliters/well of these dilutions were added to the 30 microliters/well of media currently on the cell plates. Medium containing 0.6% DMSO was added to control wells. The final concentration of DMSO in all wells was 0.3%. Cells were incubated at 37° C., 5% CO2 for 3 days. Cell biomass was estimated using Celltiter Glo (Promega G7571). Briefly, plates were removed from the incubator and allowed to equilibrate to rt for 30 minutes. 60 microliters of Celltiter Glo reagent were added to each well of the treated cells and plates were shaken on an orbital plate shaker for 2 min. Plates were incubated without shaking for 30 more min and read in a luminometer with an integration time of 0.5 seconds per well. Percent inhibition of cell growth was calculated relative to vehicle treated control wells. Concentration of compound that inhibits 50% of vehicle control cell growth (IC50) was interpolated using nonlinear regression (Levenberg-Marquardt) and the equation, y=Vmax*(1−(x/(K+x)))+Y2, where “K” was equal to the IC50.

[2] = target: T1, ErbB2 or EGFR; test: ErbB family substrate phosphorylation enzyme assay (HTRF), Method A or Method B; assay type: biochemical; conditions: Method B: enzyme mix pre-incubated with compound 1 hour at 20° C., started with substrate mix
T1 construct: enzymes purified from a baculovirus expression system; Reagent production was conducted essentially as described in Brignola, P. S., et al, (2002) J. Biol. Chem. 277(2): 1576-1585
How it was run: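 Baculovirus-expressed EGFR or ErbB2 (0.8 or 10 nM in enzyme mix) phosphorylates biotinylated Peptide C with 20 µM ATP and 0.8 µM peptide (substrate-mix levels), MnCl2, pH 7.5. Reaction ran 90 min at 20 °C with EDTA stop and HTRF anti-phosphotyrosine read. Method A: enzyme added last; Method B: 1 h enzyme–compound preincubation.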

[3] = test system: Colo205 tumor cell lines; test: Celltiter Glo growth inhibition assay (cellular Method B), Colo205; assay type: cell-based; conditions: Homo sapiens, COLO 205, 72 h, 3 days, read-out: Activity (Method): growth inhibition IC50 class
Experimental: as §1

SMILES	pIC50 [1]	pIC50 [3]	Activity (Method): pIC50 class against ErbB2 or EGFR [2]
CN1CCc2ccc(Nc3nccc(-c4c(-c5cccc(NC(=O)c6c(F)cccc6F)c5)nn5cccc(F)c45)n3)cc2C1 [Example 169, 2,6-Difluoro-N-[3-(4-fluoro-3-{2-[(2-methyl-1,2,3,4-tetrahydro-7-isoquinolinyl)amino]-4-pyrimidinyl}pyrazolo[1,5-a]pyridin-2-yl)phenyl]benzamide]	> 7.00	< 6.00	+++ (B) (at least one pIC50 measurement of greater than 7 against either ErbB2 or EGFR)
O=C(Nc1cccc(-c2nn3cccc(F)c3c2-c2ccnc(Nc3cccc(CN4CCCC4)c3)n2)c1)c1c(F)cccc1F [Example 170, 2,6-Difluoro-N-{3-[4-fluoro-3-(2-{[3-(1-pyrrolidinylmethyl)-phenyl]amino}-4-pyrimidinyl)pyrazolo[1,5-a]pyridin-2-yl]phenyl}benzamide]	6.00 to 7.00	< 6.00	+++ (B) (at least one pIC50 measurement of greater than 7 against either ErbB2 or EGFR)
O=C(Nc1cccc(-c2nn3cc(C(F)(F)F)ccc3c2-c2nc(Nc3cccc(F)c3)ncc2F)c1)c1c(F)cccc1F [Example 193, 2,6-Difluoro-N-{3-[3-{5-fluoro-2-[(3-fluorophenyl)amino]-4-pyrimidinyl}-6-(trifluoromethyl)pyrazolo[1,5-a]pyridin-2-yl]phenyl}benzamide]	< 6.00	< 6.00	+ (B) (no pIC50 measurement greater than 6 against either ErbB2 or EGFR)
CN1CCc2ccc(Nc3nccc(-c4c(-c5cccc(NC(=O)c6c(F)cccc6F)c5)nn5cc(F)ccc45)n3)cc2C1 [Example 173, 2,6-Difluoro-N-[3-(6-fluoro-3-{2-[(2-methyl-1,2,3,4-tetrahydro-7-isoquinolinyl)amino]-4-pyrimidinyl}pyrazolo[1,5-a]pyridin-2-yl)phenyl]benzamide]	> 7.00	< 6.00	+++ (B) (at least one pIC50 measurement of greater than 7 against either ErbB2 or EGFR)

Now from value to compound, other results behind:

pIC50 [1]	pIC50 [3]	SMILES	Activity (Method): pIC50 class against ErbB2 or EGFR [2]
> 7.00	< 6.00	CS(=O)(=O)Cc1cccc(Nc2nccc(-c3c(-c4cccc(NC(=O)c5c(F)cccc5F)c4)nn4ccccc34)n2)c1 [Example 135, 2,6-Difluoro-N-(3-{3-[2-({3-[(methylsulfonyl)methyl]phenyl}amino)-4-pyrimidinyl]pyrazolo[1,5-a]pyridin-2-yl}phenyl)benzamide]	+++ (B) (at least one pIC50 measurement of greater than 7 against either ErbB2 or EGFR)
< 6.00	< 6.00	O=C(Nc1cccc(-c2nn3cc(C(F)(F)F)ccc3c2-c2ccnc(Nc3cccc(F)c3)n2)c1)c1c(F)cccc1F [Example 191, 2,6-Difluoro-N-{3-[3-{2-[(3-fluorophenyl)amino]-4-pyrimidinyl}-6-(trifluoromethyl)pyrazolo[1,5-a]pyridin-2-yl]phenyl}benzamide]	++ (B) (at least one pIC50 measurement greater than 6 against either ErbB2 or EGFR but no measurement greater than pIC50 of 7)
> 7.00	< 6.00	Cc1ccc(F)c(C(=O)Nc2cccc(-c3nn4ccccc4c3-c3ccnc(Nc4ccc(OCCN(C)C)c(Cl)c4)n3)c2)c1F.O=C(O)C(F)(F)F [Example 186, N-[3-(3-{2-[(3-chloro-4-{[2-(dimethylamino)ethyl]oxy}phenyl)-amino]-4-pyrimidinyl}pyrazolo[1,5-a]pyridin-2-yl)phenyl]-2,6-difluoro-3-methylbenzamide-TFA]	+++ (B) (at least one pIC50 measurement of greater than 7 against either ErbB2 or EGFR)
